Results reported in ChEMBL document CHEMBL1201862, “PubChem BioAssay data set” (2004).
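Growth conditions: 96-well plates. Treatment: test compound, 48 hours, 5 concentrations. Analysis: linear interpolation between bracketing concentrations; unreached endpoints set to highest concentration. The concentration for 50% growth inhibition is given as GI50.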 Activity calls are given as the source filed them. Cut-off read from the data, not from the text of the source: active = GI50 up to about 1.1 µM and inactive = higher.

Columns and labels:
Experiment in all cases: inhibition of tumour cell growth, NCI panel, 48 h
[1] = tested on: 786-0
[2] = tested on: A498
[3] = tested on: A549
[4] = tested on: ACHN
[5] = tested on: BT-549
[6] = tested on: CAKI-1
[7] = tested on: CCRF-CEM
[8] = tested on: COLO 205
[9] = tested on: DU-145
[10] = tested on: EKVX
[11] = tested on: HCC 2998
[12] = tested on: HCT-116
[13] = tested on: HCT-15
[14] = tested on: HL-60
[15] = tested on: HOP-62
[16] = tested on: HOP-92
[17] = tested on: HT-29
[18] = tested on: Hs-578T
[19] = tested on: IGROV-1
[20] = tested on: K562
[21] = tested on: KM12
[22] = tested on: LOX IMVI
[23] = tested on: M14
[24] = tested on: MCF7
[25] = tested on: MDA-MB-231
[26] = tested on: MDA-MB-435
[27] = tested on: MDA-N
[28] = tested on: MOLT-4
[29] = tested on: Malme-3M
[30] = tested on: NCI-H226
[31] = tested on: NCI-H23
[32] = tested on: NCI-H460
[33] = tested on: NCI-H522
[34] = tested on: NCI/ADR-RES
[35] = tested on: OVCAR-3
[36] = tested on: OVCAR-4
[37] = tested on: OVCAR-5
[38] = tested on: OVCAR-8
[39] = tested on: PC-3
[40] = tested on: RPMI-8226
[41] = tested on: RXF 393
[42] = tested on: SF-268
[43] = tested on: SF-295
[44] = tested on: SF-539
[45] = tested on: SK-MEL-28
[46] = tested on: SK-MEL-2
[47] = tested on: SK-MEL-5
[48] = tested on: SK-OV-3
[49] = tested on: SN12C
[50] = tested on: SNB-19
[51] = tested on: SNB-75
[52] = tested on: SR
[53] = tested on: SW-620
[54] = tested on: T47D
[55] = tested on: TK-10
[56] = tested on: U-251
[57] = tested on: UACC-257
[58] = tested on: UACC-62
[59] = tested on: UO-31

Measured: GI50

COc1cc(C2c3cc4c(cc3OC3(OC)COC(=O)C23)OCO4)cc(OC)c1OC (centres undefined)
inactive: [5] 1700 nM | [16] 3220 nM | [36] 4850 nM | [37] 3660 nM | [50] 1640 nM | [54] > 100000 nM | [55] 1190 nM | [57] 2660 nM
active: [1] 353 nM | [2] 281 nM | [3] 375 nM | [4] 618 nM | [6] 568 nM | [7] 305 nM | [8] 251 nM | [9] 395 nM | [10] 343 nM | [11] 325 nM | [12] 267 nM | [14] 263 nM | [15] 480 nM | [17] 274 nM | [18] 355 nM | [19] 425 nM | [20] 230 nM | [21] 129 nM | [22] 188 nM | [23] 272 nM | [24] 292 nM | [25] 290 nM | [26] 86.3 nM | [27] 75 nM | [28] 456 nM | [29] 605 nM | [30] 649 nM | [31] 389 nM | [32] 380 nM | [33] 180 nM | [34] 128 nM | [35] 282 nM | [38] 332 nM | [39] 285 nM | [40] 284 nM | [41] 142 nM | [42] 514 nM | [43] 173 nM | [44] 197 nM | [45] 400 nM | [46] 771 nM | [47] 292 nM | [48] 348 nM | [49] 478 nM | [51] 311 nM | [52] 272 nM | [53] 286 nM | [56] 377 nM | [58] 311 nM | [59] 675 nM
286 nM: [13]
